Test results reported in PubChem BioAssay (NCI).
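Step 1: Grow cells in 96-well plates. Step 2: Expose to compound for 48 hours at 5 concentrations. Step 3: Interpolate endpoints linearly; if unreached, use highest concentration. TGI is the concentration that stops growth completely.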 Where a SMILES comes first, the peptide text is derived from it. [ ]: non-standard residue; d: D form. The star is where a group is joined. Bn2Val = CC(C)[C@@H](C(=O)*)N(Cc1ccccc1)Cc1ccccc1; NMeV = CN[C@H](C(=O)O)C(C)C; X29 = COc1ccc(CN*)c(OC)c1; dNMeA = CN[C@H](C)C(=O)O

Tests used:
Test in all cases: NCI tumour cell line growth inhibition, 48 h
MCF7 breast = system: MCF7 breast
COLO 205 colon = system: COLO 205 colon
K-562 leukemia = system: K-562 leukemia
OVCAR-4 ovarian = system: OVCAR-4 ovarian
OVCAR-5 ovarian = system: OVCAR-5 ovarian
UACC-62 melanoma = system: UACC-62 melanoma
HOP-92 NSCLC = system: HOP-92 NSCLC
UACC-257 melanoma = system: UACC-257 melanoma
NCI/ADR-RES ovarian = system: NCI/ADR-RES ovarian
KM12 colon = system: KM12 colon

Row | Compound | TGI (MCF7 breast) [µM] | TGI (COLO 205 colon) [µM] | TGI (K-562 leukemia) [µM] | TGI (OVCAR-4 ovarian) [µM] | TGI (OVCAR-5 ovarian) [µM] | TGI (UACC-62 melanoma) [µM] | TGI (HOP-92 NSCLC) [µM] | TGI (UACC-257 melanoma) [µM] | TGI (NCI/ADR-RES ovarian) [µM] | TGI (KM12 colon) [µM]
1 | CC(=O)OC1C2CCC3C(C)(O)C4CC(O)C(C)(C)C4(O)C(O)CC13CC2(C)O (stereo not given) | > 100 | > 100 | > 100 | > 100 | > 100 | > 100 | > 100 | > 100 | > 100 | > 100
2 | COC(=O)c1c(CC(Cc2ccc3c(c2)CCCC3)C(=O)OC)ccc2c1CCCC2 (stereo not given) | > 100 | > 100 | > 100 | 45.1 | > 100 | > 100 | > 100 | > 100 | > 100 | > 100
3 | COc1ccc(CNC(=O)[C@@H]2CCCN2C(=O)[C@@H](C)N(C)C(=O)[C@H](C(C)C)N(C)C(=O)[C@@H](NC(=O)[C@H](C(C)C)N(Cc2ccccc2)Cc2ccccc2)C(C)C)c(OC)c1 (Bn2Val-V[NMeV][dNMeA]P-X29) | 12 | 5.09 | > 100 | 14.4 | 3.13 | 15.4 | 9.1 | 11.9 | 12.3 | 5.78
4 | [O-][n+]1c(CN2CCCCC2)nc2cccc3c2c1-c1ccccc1-3 | 76.5 | 64.3 | > 100 | 77.4 | 50.5 | 32.8 | 85.6 | 39.4 | 84.6 | > 100
5 | CC(C)(C)CC(C)(C)NC(=S)NO | > 100 | > 100 | > 100 | > 100 | > 100 | > 100 | > 100 | > 100 | > 100 | > 100
6 | O=c1[nH]c(=O)n(COCCO)c2ccsc12 | > 100 | > 100 | > 100 | > 100 | > 100 |  | > 100 | > 100 | > 100 | > 100
7 | Cn1c([C@H](C#N)C(=O)c2cc(O)ccc2[N+](=O)[O-])nc2ccccc21 | > 100 | > 100 |  | > 100 | > 100 | > 100 | > 100 | > 100 | > 100 | > 100
8 | Cc1ccc(S(=O)(=O)NC(=O)NC(CCCCN=C(N)N)C(=O)O)cc1 (stereo not given) | > 100 | > 100 | > 100 | > 100 |  | > 100 | > 100 | > 100 | > 100 | > 100
9 | COC(=O)c1c(C)cccc1C1CN=NC12Cc1ccc(C)c(C)c1C2=O (stereo not given) | > 100 |  | > 100 | > 100 | > 100 | 57.9 | > 100 | > 100 | > 100 | > 100
10 | Cc1nc2n(c1/C=C1/C(=O)Nc3ccccc31)CCS2 | > 100 | 47.6 | > 100 | > 100 | > 100 | > 100 | > 100 | > 100 | > 100 | > 100
11 | Cc1ccc(NC2=NCCO2)c2c1CCC2 | > 100 | 83.6 | > 100 | > 100 | > 100 | > 100 | 70 |  | 50 | 63.9
